Test results: patent publication US6759385B1, “Methods to treat undesirable immune responses” (Regents of the University of Minnesota, priority 1997, dated 2004)

What was measured:
anti-FVIII CD4+ cells = test: CD4+ epitope repertoire to FVIII in hemophilia A mice; type: cell-based, mouse; conditions: mice immunized s.c. with FVIII in Freund adjuvant
Description: CD4^+ epitope repertoire to FVIII in hemophilia A mice. Mice were immunized with 1 microgram of purified recombinant human FVIII emulsified in Freund adjuvant, and injected subcutaneously three times. The first injection utilized complete Freund adjuvant. This procedure, as opposed to i.v. injections of soluble FVIII, was selected to ensure a strong immunization to FVIII and to reveal the broadest epitope repertoire recognized by anti-FVIII CD4^+ cells.
FIG. 48 summarizes the results obtained regarding the anti-FVIII CD4^+ repertoire in the mice thus immunized. The individual peptides are indicated with codes that include two numbers, corresponding to the position of the first and last peptide residue on the sequence of the FVIII precursor. The responses to the individual peptides are organized in panels corresponding to the different domains, as indicated.

[1] = test system: anti-TAChR and anti-peptide IgG subclasses; test: ELISA of anti-TAChR and anti-peptide IgG subclasses (Example III); type: in vivo, mouse; conditions: IL-4 KO mice, nasal α epitope pool
Description: Assay of Anti-TAChR and Anti-peptide IgG Subclasses. The relative concentration of IgG subclasses of anti-TAChR and anti-peptide antibodies in the sera of peptide- and sham-treated mice was measured by ELISA after immunization with TAChR. Pooled sera from three-four mice that had received identical treatments was used. The sera used in this assay was obtained at the end of the observation period (10 weeks after beginning of the anti-TAChR immunization).
Ninety-six well plates (Nunc, Karstrup, Denmark) were washed extensively and incubated as follows: 4 hours with a 10 μg/ml solution of TAChR or of individual peptides Tα150-169, Tα181-200 and Tα360-378 in 0.1 M Na phosphate buffer, pH 9.5 (two wells for each antigen), 1 hr with PBS plus 3% bovine serum albumin (BSA), 2 hours with mouse serum (serial dilutions from 1:100 to 1:40,000 in PBS plus 3% BSA), 1 hr with a dilution 1:1000 in PBS plus 3% BSA of goat antibody specific for the total IgG, or IgGl, or IgG2a, or IgG2b or IgG3 (Mouse Monoclonal Isotyping Kit, Sigma, St. Louis, Mo.), and 30 minutes with a 1:3000 dilution of peroxidase-conjugate rabbit anti-goat IgG (Sigma) in PBS plus 3% BSA. The plates were washed, and developed them for 20-60 minutes with ABTS peroxidase substrate system (Kirkegaard & Perry Laboratories Inc., Gaithersburg, Md.). […] The OD was read at 405 nanometers. […]

[2] = test system: CD8+ depleted spleen cells; test: Lymphocyte proliferation assay, CD8+ depleted spleen cells of IL-4 KO mice; type: cell-based, mouse; conditions: IL-4 KO mice immunized with TAChR, 10 μg/ml peptide
Description: Lymphocyte Proliferation Assay. Two weeks after the last immunization, spleen cells (Bellone et al., 1991) were obtained from three identically treated IL-4 KO mice. The cells were pooled and depleted them in CD8^+ cells using paramagnetic beads and rat anti-mouse CD8^+ antibody (Pharmingen, San Diego, Calif.). The cells were suspended in RPMI-1640 (Gibco, Grand Island, N.Y.) supplemented with 10% heat inactivated fetal calf serum (Gibco), 50 μM 2-mercaptoethanol, 1 mM L-glutamine, 10 mM Hepes, 1 mM sodium pyruvate, 100 U/ml penicillin and 100 μg/ml streptomycin (×10^6 cells/ml). The cells were seeded in triplicate in 96 flat-bottom well plates (200 μl/well). One of the following antigens or stimulants was added: 10 μg/ml phytohemoagglutinine (PHA) (Sigma); 10 μg/ml TAChR; the pools of overlapping peptides spanning the α, β, γ, or δ subunit sequences (5 μg/ml) of each peptide); and 10 μg/ml of the individual a subunit peptides. Controls were triplicate wells cultivated without any antigen, or with or a 20-residue control peptide synthesized by the same method, unrelated to the TAChR sequence (10 μg). After four days the cells were labeled for 16 hours with ^3H-thymidine (1 μCi per well, specific activity 6.7 Ci/mmol, Dupont, Boston, Mass.), and harvested (Titertek, Skatron, Sterling, Va.). The ^3H-thymidine incorporation was measured by liquid scintillation.

spleen CD4+ T-cells = test: Lymphocyte proliferation assay, spleen CD4+ T-cells (Example IV); type: cell-based, mouse; conditions: TAChR-immunized B6 mice, 5 or 10 μg/ml
Description: Lymphocyte proliferation assay. Five to seven days after the last TAChR immunization, CD4^+ T-cells (Bellone et al., 1991a) were purified from the pooled spleens of three to four mice that had received identical treatments. Irradiated (3000 rad) spleen cells from non-immunized mice were diluted as needed in RPMI-1640 (Gibco, Grand Island, N.Y.) supplemented with 10% heat inactivated fetal calf serum (Gibco), 50 μM 2-mercapto-ethanol, 1 mM L-glutamine, 10 mM HEPES, 1 mM sodium pyruvate, 100 U/ml penicillin and 100 μg/ml streptomycin (culture medium) and used as APC. The spleen CD4^+ T-cells (1×10^6/ml in culture medium, 100×1/well) were seeded in triplicate in 96 flat-bottom well plates containing 100×1 of 5×10^6/ml APC. One of the following Ag was added: 10 μg/ml PHA (Sigma); 5 or 10 μg/ml TAChR; 5 or 10 μg/ml of the individual epitope peptides. The concentrations of TAChR and epitope peptides are in the saturating range of the dose dependence curve (Bellone et al., 1991a), and yielded consistent results. Controls were triplicate wells containing CD4^+ cells and APC without any Ag, or with the control peptide (10 μg/ml). After 4 days the cells were labeled for 16 hours with ^3H-thymidine (1 μCi per well, specific activity 6.7 Ci/mmol, Dupont, Boston, Mass.) and harvested (Titertek, Skatron, Sterling, Va.). The ^3H-thymidine incorporation was measured by liquid scintillation, and represented the results as stimulation indexes (S.I.: the ratio between the cpm obtained in the presence of a given stimulus, and the average cpm obtained for non-stimulated control cultures).

[3] = test system: established EMG in B6 mice; test: Subcutaneous treatment, post-priming protocol, established EMG (Example IV); type: in vivo, mouse
Description: (§1) B6 mice (Jackson Laboratory, Bar Harbor, Me.) were injected s.c. with 100 μl of PBS containing increasing amounts of a pool of the same amount in weight of each of the three epitope peptides Tα150-169, Tα180-200 and Tα360-378 (‘peptide pool’), or 200 μg of Tα150-169 alone, or 100 μl of PBS containing 0.1% Triton X-100 and 10 μg of solubilized TAChR. Two different treatment schedules were used, referred to as prevention and post-priming protocols. In the prevention protocol, the peptides or solubilized TAChR were administered twice per week for 14 weeks, starting 2 weeks before the beginning of the immunization with TAChR. In the post-priming protocol, peptides or solubilized TAChR were administered twice per week for […], starting 8 weeks after the beginning of the TAChR immunization. Control mice received 100 μl of peptide-free PBS, following the same schedules.
(§2) Immunization 8-10 week old mice were immunized by s.c. injections, along the back and at the base of the tail, of TAChR (a total of 50 μg in 100 μl of PBS for each immunization) emulsified in an equal volume of CFA for the first injection, and IFA for the following two boosts. The mice were injected for a total of three times at 3-4 week intervals. At the end of the observation period, the mice received a third boost, and were sacrificed 5-7 days later. Control mice were injected with clean PBS in the appropriate adjuvant.
Evaluation of the symptoms of EMG The EMG symptoms were quantified using a forced exercise test sensitized by i.p. injection of a minute amount of pancuronium bromide (0.03 mg/kg) just before the test (Karachunski et al., 1995). The mouse hangs from a grid suspended above a soft padding, and the time it takes the mouse to fall three times (‘holding time’) was measured. The test is parametric, and gives a quantitative assessment of the mouse weakness. The myasthenic nature of the weakness was verified by injecting i.p. edrophonium chloride (Reversol, Organon, West Orange, N.J.), which is a cholinesterase inhibitor. […] The mice were tested without knowledge of their treatment. […]

serum anti-TAChR Ab = test: Anti-TAChR IgG and IgG1 radioimmunoprecipitation assay (Example IV); type: in vivo, mouse; conditions: s.c. tolerization, prevention protocol
Description: Anti-TAChR Ab assay. Sera was obtained from each mouse after each clinical testing and at the end of the observation period (12 weeks after beginning of the TAChR immunization). The serum concentration of anti-TAChR IgG and IgGI was determined by radioimmunoprecipitation assay, using TAChR solubilized in Triton X-100 and labeled by the binding of ^125I-α-BTX (Bellone et al., 1991a). As a secondary Ab, either rabbit anti-mouse IgG produced, or goat anti-mouse IgG1 (Sigma, St. Louis, Mo.), was used. The anti-TAChR Ab concentration is expressed as μM precipitated ^125I-α-BTX binding sites.
Two types of experiments were carried out. In one of them the total anti-TAChR Ab in the sera of individual mice, obtained 8, 10 and 12 weeks after the first TAChR immunization, was determined. In the other, the anti-TAChR IgG1 concentration was determined, as well as the total anti-TAChR IgG concentration, in sera obtained at the end of the observation period. For this second assay pooled sera from five mice that had received identical treatments was used.

[4] = test system: EMG in B6 mice immunized with TAChR; test: Subcutaneous tolerization, prevention protocol, EMG symptoms (Example IV); type: in vivo, mouse; conditions: s.c. 10 μg/injection
Description: as §1, §2
Evaluation of the symptoms of EMG The EMG symptoms were quantified using a forced exercise test sensitized by i.p. injection of a minute amount of pancuronium bromide (0.03 mg/kg) just before the test (Karachunski et al., 1995). The mouse hangs from a grid suspended above a soft padding, and the time it takes the mouse to fall three times (‘holding time’) was measured. The test is parametric, and gives a quantitative assessment of the mouse weakness. The myasthenic nature of the weakness was verified by injecting i.p. edrophonium chloride (Reversol, Organon, West Orange, N.J.), which is a cholinesterase inhibitor. […] The mice were tested without knowledge of their treatment.
The holding time of normal mice was 10.4±2.1 minutes (n=99). Mice with holding times of 8 minutes or longer were considered normal. Mice with holding times less than 6.2 minutes (the holding time of normal mice minus two SD) were considered to have fully developed EMG. Holding times of 6.2-8 minutes were considered to potentially indicate initial EMG. Normal or sham-immunized mice had occasionally holding times of 6.2-8 minutes, but never less than 6.2 minutes. Paralyzed mice and mice that died of respiratory paralysis are indicated as having holding time of 0 minutes.

1-20: synthetic peptide, residues 1-20 of the FVIII precursor (MQIELSTCFFLCLLRFCFSA; UniProt P00451 1-20, looked up, fragment)
recognition of individual FVIII peptides by CD4+ cells (anti-FVIII CD4+ cells): recognized especially strongly

peptide Tα360-378: synthetic peptide corresponding to residues 360-378 of the TAChR α subunit (VIFQTPLIKNPDVKSAIEG; UniProt P02710 384-402, looked up, fragment)
anti-peptide IgG2a [1]: moderate synthesis of IgG2a | recognition of individual peptide by cells from sham-treated mice [2]: recognized strongly | response of CD4+ cells from sham-tolerized mice to the peptide (spleen CD4+ T-cells): three of the five

solubilized TAChR: Torpedo californica acetylcholine receptor purified from electric organ, solubilized in Triton X-100
mice with holding times of 6.2 or less ([3]; at 44 weeks, s.c. post-priming protocol): 80% | EMG frequency after the s.c. treatment had started ([3]; s.c. without adjuvant, post-priming protocol): very high EMG frequency | effect on anti-TAChR Ab synthesis (serum anti-TAChR Ab): delayed but did not ultimately affect | protection from EMG [4]: protected from EMG to levels comparable | mice with clear EMG weakness ([4]; at 12 weeks): one of 12 | mice with holding times of 6.2-8 minutes ([4]; at 12 weeks): two mice

1671-1690: synthetic peptide, residues 1671-1690 of the FVIII precursor (RTTLQSDQEEIDYDDTISVE; UniProt P00451 1671-1690, looked up, fragment)
recognition of individual FVIII peptides by CD4+ cells (anti-FVIII CD4+ cells): recognized especially strongly
